Results as given in US20230374043A1, “Hexadeca Ammonium-Modified Phthalocyanine and Preparation Method and Use Thereof as Photodynamic Drug” (Fuzhou University, priority 2020, published 2023).
Read-outs that look alike come from different tables or passages of the source.

Legend:
[1] = ultraviolet-visible absorption spectrum of zinc phthalocyanine complexes in water; assay type: physicochemical; conditions: for maximum absorption wavelength: in water; for state in water judged from Q band (aggregation / monomer): 4 μM, no surfactant
Source text: It was seen from the figure that the Q bands of the zinc phthalocyanine complexes obtained in Examples 1 to 6 in water each were relatively wide and low, showing different degrees of aggregation; while only the Q bands of the zinc phthalocyanine complexes in Examples 7 and 8 in water were strong and sharp peaks.

Staphylococcus aureus [2] = test: dark toxicity and photodynamic antibacterial effect against Staphylococcus aureus (colony count); assay type: cell-based; conditions: for increase compared with the IC90 value of MB: under illumination; for IC90: 4 h incubation, red light >610 nm, 15 mW cm^-2, 30 min, read-out: IC90 value (concentration required to kill 90% of Staphylococcus aureus); for photodynamic antibacterial activity: after illumination with red light; for dark toxicity on Staphylococcus aureus: without illumination, 4 h in PBS, colony count
Description: The dark toxicity and photodynamic antibacterial effect of the 2,3-bis[3-(trimethylammonium)phenoxy]zinc phthalocyanine diiodate of Example 2, the 1,2,3,4-bis[3-(trimethylammonium)phenoxy]zinc phthalocyanine tetraiodate of Example 4, the octa-β-[3-(trimethylammonium)phenoxy]zinc phthalocyanine octaiodate of Example 6, and the hexadeca-[3-(trimethylammonium)phenoxy]zinc phthalocyanine hexadecaiodate of Example 8 against Staphylococcus aureus were tested.
1 mM of the photosensitive medicament was diluted into PBS to prepare a PBS solutions containing zinc phthalocyanine complexes at different concentrations, and then Staphylococcus aureus was cultured in the PBS solutions containing zinc phthalocyanine complexes at different concentrations for 4 h. Illumination experiment group: the cells were irradiated with red light for 30 min at a power of irradiated light at 15 mW cm^−2 using red light with a wavelength greater than 610 nm as an excitation light source; non-illumination control group: the cells were placed in the dark for 30 min. A treated cell suspension was inoculated on a surface of a Luria-Bertani medium, cultured for 48 h, and the dark toxicity and photodynamic activity of the photosensitive medicament to Staphylococcus aureus were examined by the number of colonies.
(§1) The red light with a wavelength greater than 610 nm was provided by a 500 W halogen lamp connected to an insulated water tank and an optical filter greater than 610 nm.

[3] = system: human liver cancer cells HepG2; test: dark toxicity and photodynamic anticancer effect on HepG2 cells (MTT); assay type: cell-based; conditions: for photodynamic anticancer activity: HepG2, after illumination with red light; for photodynamic activity relative to tetrakis-α-(2,4,6-tris(N,N,N-trimethylammonium methyl)-phenoxy)zinc phthalocyanine dodecaiodate: HepG2, under illumination; for dark toxicity on HepG2 cells: without illumination, 2 h incubation
Description: The dark toxicity and photodynamic anticancer effect of the 2,3-bis[3-(trimethyl ammonium)phenoxy]zinc phthalocyanine diiodate of Example 2, the 1,2,3,4-bis[3-(trimethylammonium)phenoxy]zinc phthalocyanine tetraiodate of Example 4, the octa-β-[3-(trimethylammonium)phenoxy]zinc phthalocyanine octaiodate of Example 6, and the hexadeca-[3-(trimethylammonium)phenoxy]zinc phthalocyanine hexadecaiodate of Example 8 on human liver cancer cells HepG2 were tested, respectively.
The main steps were as follows: the above photosensitive medicaments were separately dissolved in water to obtain 1 mM photosensitizers, and then diluted into a cell medium to prepare cell mediums containing zinc phthalocyanine complexes at different concentrations. The human liver cancer cells HepG2 were cultured in the mediums containing zinc phthalocyanine complexes at different concentrations for 2 h; the medium was discarded; and after washing with PBS, the cells were added into a new medium (without zinc phthalocyanine complexes). Illumination experiment group: the cells were irradiated with red light for 30 min at a power of irradiated light at 15 mW cm^−2 using red light with a wavelength greater than 600 nm as an excitation light source; non-illumination control group: the cells were placed in the dark for 30 min. After illumination or non-illumination, the cell viability was examined by MTT.
as §1

liver cancer H22 = test: small animal live imaging in tumor-bearing (liver cancer H22) mouse model; assay type: in vivo; conditions: tail vein; for time at which tumor fluorescence reached its peak: 0.8 mol·Kg^-1, imaging within 24 h
Description: The 2,3-bis[3-(trimethylammonium)phenoxy]zinc phthalocyanine diiodate of Example 2, the 1,2,3,4-bis[3-(trimethylammonium)phenoxy]zinc phthalocyanine tetraiodate of Example 4, the octa-β-[3-(trimethylammonium)phenoxy]zinc phthalocyanine octaiodate of Example 6, and the hexadeca-[3-(trimethylammonium)phenoxy]zinc phthalocyanine hexadecaiodate of Example 8 each were dissolved in a physiological saline and diluted into solutions to be tested. A tumor-bearing (liver cancer H22) mouse model was established according to a method in the literature (ACS Applied Materials & Interfaces, 2019, 11(40), 36435-36443), 100 μL of each phthalocyanine solution (at an administration dosage: […]) was injected through the tail vein, and small animal live imaging was conducted within the next 24 h.

Staphylococcus aureus [4] = test: photodynamic antibacterial effect on mice infected with Staphylococcus aureus; assay type: in vivo; conditions: 15 d
Description: A photodynamic antibacterial effect of the hexadeca-[3-(trimethylammonium)phenoxy]zinc phthalocyanine hexadecaiodate of Example 8 was tested on mice infected with Staphylococcus aureus.
0.1 mL of a PBS solution containing Staphylococcus aureus colonies was inoculated subcutaneously on the right abdomen of depilated normal-grade KM female mice (weighed about 20 g), at a cell concentration of (1-2)×10^6 CFU·mL^−1, and the mice could be treated two days after inoculation. 4 groups were set up, namely a hexadeca-[3-(trimethylammonium)phenoxy]zinc phthalocyanine hexadecaiodate+laser group, a hexadeca-[3-(trimethylammonium)phenoxy]zinc phthalocyanine hexadecaiodate group, a blank+laser group, and a blank group. Before treatment, a sterile absorbent pad of a wound dressing was soaked with 100 μL of the phthalocyanine aqueous solution (containing 1% CEL), applied to the wound of the treatment group, and fixed with a zinc oxide tape. The wound dressing was applied for 2 h each time, and then the dressing was changed once, and then continued for another 2 h. The blank group was given normal saline for applying. After 4 h, the illumination group was treated with laser at (685±5) nm (with a light intensity of 9.4 mW·cm^−2 for 5 min). The mice were observed and recorded for 15 d. After 15 d, the tissues at the infected site were excised, ground and extracted with 1 mL of a sterilized PBS to obtain a bacterial suspension, diluted by 50 times, spread on the surface of the corresponding Luria-Bertani medium, with parallelly 3 plates for each concentration, cultured in a 37° C. incubator, and then observed and counted after 24 h.

subcutaneous tumors = test: photodynamic tumor inhibition in KM mice with subcutaneous tumors; assay type: in vivo
Description: The zinc phthalocyanine complex obtained in Example 8 was dissolved in physiological saline and diluted to form a solution to be tested. […] with subcutaneous tumors were taken, and each drug was divided into 4 groups (a medication+laser group, a medication group, a normal saline group, and a normal saline+laser group), with 5 mice in each group; when the tumor grew to (60-100) mm^3, 100 μL of a phthalocyanine aqueous solution was injected intravenously at a dosage of […]. After 1 h, the mice were anesthetized and irradiated with laser of (685±5) nm (at a light intensity of 9.4 mW cm^−2 for 10 min). The mice were continued to be fed, and observed every other day; a weight of the mice was measured and a long diameter and a short diameter of the mice were measured with a vernier caliper for a total of 14 d.

Staphylococcus aureus [5] = conditions: comparison value, source not stated, read-out: IC90 value of the commonly used photosensitizer; cited from earlier work
[6] = Homo sapiens, HepG2, read-out: half maximal inhibitory concentration (IC50)

Compound	maximum absorption wavelength [1]	state in water judged from Q band (aggregation / monomer) [1]	increase compared with the IC90 value of MB (Staphylococcus aureus [2]; Staphylococcus aureus)	IC90 (Staphylococcus aureus [2]; Staphylococcus aureus)	photodynamic antibacterial activity (Staphylococcus aureus [2])	dark toxicity on Staphylococcus aureus (Staphylococcus aureus [2])	photodynamic anticancer activity [3]	photodynamic activity relative to tetrakis-α-(2,4,6-tris(N,N,N-trimethylammonium methyl)-phenoxy)zinc phthalocyanine dodecaiodate [3]	IC50 [3, 6]	dark toxicity on HepG2 cells ([3]; MTT)	accumulation / targeting ability in tumor sites (liver cancer H22; 0.8 mol·Kg^-1)	metabolism in vivo (liver cancer H22; 0.8 mol·Kg^-1)	time at which tumor fluorescence reached its peak (liver cancer H22)	enrichment in organs (liver cancer H22; 0.8 mol·Kg^-1)	other results
1,2,3,4,8,9,10,11,15,16,17,18,22,23,24,25-hexadeca[3-(dimethylamino)phenoxy]zinc phthalocyanine complex [Example 7]	727 nm	monomers													
C[N+](C)(C)c1cccc(Oc2c(Oc3cccc([N+](C)(C)C)c3)c(Oc3cccc([N+](C)(C)C)c3)c3c(c2Oc2cccc([N+](C)(C)C)c2)C2=Nc4c5ccccc5c5[n]4[Zn@]46[n]7c(c8ccccc8c7=NC3=[N+]24)=NC2=[N+]6C(=N5)c3ccccc32)c1 [Example 4]			80 times	74 nM	high photodynamic antibacterial activity	no killing and growth inhibitory effect	high photodynamic anticancer activity	1.00 times	210 nM	no killing and growth inhibitory effect	poor accumulation ability in tumor sites				
hexadeca-[3-(dimethylammonium)phenoxy]zinc phthalocyanine hexadecaiodate [Example 8]	714 nm	monomers	86 times			no killing and growth inhibitory effect		2.25 times		no killing and growth inhibitory effect	excellent targeting ability	rapid metabolism in vivo	2 h		IC90 (Staphylococcus aureus [2]): 69 nM; appearance of infected skin site (Staphylococcus aureus [4]; +laser group): crusted; inhibition rate of Staphylococcus aureus colonies from excised tissue (Staphylococcus aureus [4]; +laser group, topical dressing 2x2 h (1% CEL), laser (685±5) nm 9.4 mW·cm^-2 5 min): 98%; appearance of infected skin site (Staphylococcus aureus [4]; compound without laser): obvious lumps; toxicity to mice (subcutaneous tumors; i.v. 0.8 mol·Kg^-1, 14 d): no obvious toxicity; tumor inhibition rate (subcutaneous tumors; medication+laser group, i.v. 0.8 mol·Kg^-1, laser (685±5) nm 9.4 mW cm^-2 10 min after 1 h, 14 d): 98.7%; body weight of the mice in the treatment group (subcutaneous tumors; within 14 d): tendency to increase; IC50 ([3]; HepG2, 2 h incubation, red light >600 nm, 15 mW cm^-2, 30 min, MTT, read-out: half maximal inhibitory concentration (IC50)): 40 nM; time until basically scavenged by the body's metabolism (liver cancer H22; 0.8 mol·Kg^-1): about 6 h
C[N+](C)(C)c1cccc(Oc2cc3c(cc2Oc2cccc([N+](C)(C)C)c2)C2=[N+]4C3=Nc3c5cc(Oc6cccc([N+](C)(C)C)c6)c(Oc6cccc([N+](C)(C)C)c6)cc5c5[n]3[Zn]43[n]4c(c6cc(Oc7cccc([N+](C)(C)C)c7)c(Oc7cccc([N+](C)(C)C)c7)cc6c4=NC4=[N+]3C(=N5)c3cc(Oc5cccc([N+](C)(C)C)c5)c(Oc5cccc([N+](C)(C)C)c5)cc34)=N2)c1 [Example 6, 2,3,9,10,16,17,23,24-octa[3-(trimethylammonium)phenoxy]zinc phthalocyanine octaiodate]			83 times	71 nM		no killing and growth inhibitory effect		1.50 times	60 nM	no killing and growth inhibitory effect		low metabolism	about 12 h	enriched to varying degrees in organs such as liver and spleen	
CN(C)c1ccc2nc3ccc(=[N+](C)C)cc-3sc2c1 [MB]															IC90 (Staphylococcus aureus [5]): 5900 nM
C[N+](C)(C)c1cccc(Oc2cc3c(cc2Oc2cccc([N+](C)(C)C)c2)C2=[N+]4C3=Nc3c5ccccc5c5[n]3[Zn@]43[n]4c(c6ccccc6c4=N2)=NC2=[N+]3C(=N5)c3ccccc32)c1 [Example 2, 2,3-bis[3-(trimethylammonium)phenoxy]zinc phthalocyanine diiodate]			69 times	85 nM	high photodynamic antibacterial activity	no killing and growth inhibitory effect	high photodynamic anticancer activity	1.23 times	170 nM	no killing and growth inhibitory effect		low metabolism	12 h	enriched to varying degrees in organs such as liver and spleen	
